Source: the NIST ThermoML archive (doi:10.1016/j.jct.2008.02.002)
“And” between values parts separate entries of the source, which are not always exact repeats. Identical values can stand only once.

Conditions: Liquid, Transpiration method

CCCCCC1CCC(=O)O1 (stereo unspecified) [2(3H)-furanone, dihydro-5-pentyl-]
Conditions | vapor or sublimation pressure [kPa]
296.2 K | 0.00085
300 K | 0.00123
306 K | 0.00211
313.1 K | 0.00391
318.1 K | 0.00574
323.2 K | 0.0088
328.2 K | 0.01277
333.1 K | 0.01835
338 K | 0.02514
342.8 K | 0.03648
348.4 K | 0.05463
353.2 K | 0.07252
358.1 K | 0.1037
363.4 K | 0.1375

CCCCCCC1CCC(=O)O1 (stereo unspecified) [γ-decalactone]
Conditions | vapor or sublimation pressure
298.4 K | 0.00035 kPa
303.3 K | 0.00056 kPa
308.2 K | 0.00088 kPa
313.1 K | 0.00146 kPa
313.4 K | 0.00144 kPa
318.2 K | 0.00214 kPa and 0.00233 kPa
322.9 K | 0.00339 kPa
323.2 K | 0.00345 kPa
328.1 K | 0.00532 kPa
328.2 K | 0.00523 kPa
333 K | 0.00765 kPa
333.2 K | 0.00791 kPa
338.1 K | 0.0114 kPa
338.7 K | 0.01181 kPa
343.2 K | 0.01646 kPa
343.9 K | 0.01747 kPa
348.2 K | 0.02361 kPa
349.4 K | 0.02507 kPa
353.3 K | 0.03379 kPa
354.8 K | 0.03595 kPa
360.3 K | 0.05404 kPa
365 K | 0.07279 kPa

CC1CCC(=O)O1 (stereo unspecified) [γ-valerolactone]
Conditions | vapor or sublimation pressure [kPa]
275.8 K | 0.00748
282 K | 0.0128
288 K | 0.02076
292.8 K | 0.02954
293.4 K | 0.03202
298.6 K | 0.04438
300.7 K | 0.05548
302.7 K | 0.06032
306.6 K | 0.08358
309 K | 0.09563
312.9 K | 0.1265
317.3 K | 0.1599
322.3 K | 0.2195
326.9 K | 0.2912
332.4 K | 0.3929
333.9 K | 0.4475
337.3 K | 0.5167
338.8 K | 0.58
342.6 K | 0.7011
343.8 K | 0.759
347.5 K | 0.9099
349.7 K | 1.033

CCC1CCC(=O)O1 (stereo unspecified) [2(3H)-furanone, 5-ethyldihydro-]
Conditions | vapor or sublimation pressure [kPa]
283.3 K | 0.00612
284.1 K | 0.00643
285.3 K | 0.00733
288.2 K | 0.00998
290.2 K | 0.01151
293.2 K | 0.01468
295.3 K | 0.0168
298.2 K | 0.02155
300.2 K | 0.0271
303.2 K | 0.0324
305.2 K | 0.0372
308.1 K | 0.04647
310.1 K | 0.05153
313.2 K | 0.06502
315.1 K | 0.06992
318.2 K | 0.08725
323.2 K | 0.1267
328.2 K | 0.1719
333.2 K | 0.2306
338.2 K | 0.3093
343.1 K | 0.4065
348.2 K | 0.5374
350.9 K | 0.6238
353.3 K | 0.6982

CCCC1CCC(=O)O1 (stereo unspecified) [2(3H)-furanone, dihydro-5-propyl-]
Conditions | vapor or sublimation pressure [kPa]
298.1 K | 0.00729
302.8 K | 0.01081
308 K | 0.01613
313.1 K | 0.02435
318 K | 0.03459
323.1 K | 0.05178
328.1 K | 0.07127
333 K | 0.09289
338.2 K | 0.1344
343.2 K | 0.1842
348.2 K | 0.2432
353.2 K | 0.3239
358.4 K | 0.4408
363.2 K | 0.572
